According to US20220323406A1, “METHODS AND COMPOSITIONS FOR DIFFERENTIATING STEM CELLS” (Massachusetts Institute of Technology, priority 2019, published 2022):

Experiments:
[1] = test system: ENR+CD organoids (ISC to Paneth cell differentiation); assay: Primary screen: basal (non-stimulated) lysozyme secretion LYZ.NS, 2.5-D 384-well ENR+CD organoid differentiation; type: cell-based, mouse
Source text: (§1) High-throughput screening.

[2] = test system: ENR+CD organoids (ISC to Paneth cell differentiation); assay: Primary screen: CCh-stimulated lysozyme secretion LYZ.S, 2.5-D 384-well ENR+CD organoid differentiation; type: cell-based, mouse; conditions: primary screen
Source text: as §1

ENR+CD organoids = assay: Primary screen: ATP (CellTiter-Glo 3D, CTG) cell number/viability, 2.5-D 384-well ENR+CD organoids; conditions: primary screen; for Z.CTG: standard z score;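 on all read-outs here: compounds given at plating and again on day 3 over a 6-day differentiation from ENR+CV stem-cell-enriched precursors, ATP measured on day 6, plate median as control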
[3] = primary screen, standard z score, dose 0.08 uM
[4] = primary screen, standard z score, dose 0.40 uM
[5] = primary screen, standard z score, dose 2.00 uM
[6] = primary screen, standard z score, dose 10.00 uM
[7] = primary screen, dose 0.08 uM, standard z score
[8] = primary screen, dose 0.40 uM, standard z score
[9] = primary screen, dose 2.00 uM, standard z score
[10] = primary screen, dose 10.00 uM, standard z score
[11] = dose 0.08 uM, FC vs plate median
[12] = dose 0.40 uM, FC vs plate median
[13] = dose 2.00 uM, FC vs plate median
[14] = dose 10.00 uM, FC vs plate median
[15] = primary screen, dose 0.08 uM, FC relative to plate median
[16] = primary screen, dose 0.40 uM, FC relative to plate median
[17] = primary screen, dose 2.00 uM, FC relative to plate median
[18] = primary screen, dose 10.00 uM, FC relative to plate median
[19] = dose 0.08 uM, FC relative to plate median
[20] = dose 0.40 uM, FC relative to plate median
[21] = dose 2.00 uM, FC relative to plate median
[22] = dose 10.00 uM, FC relative to plate median

O=C(Oc1cc(S(=O)(=O)c2ccccc2)ccc1[N+](=O)[O-])c1ccc(Cl)cc1 [BTB06584]
Dose.FC.LYZ.NS ([1]; primary screen, dose 0.08 uM): 0.091 log2 fold change
Z.LYZ.NS (standard z score) ([1]; primary screen, dose 0.08 uM): 0.795
Dose.FC.LYZ.NS ([1]; primary screen, dose 0.40 uM): 0.025 log2 fold change
Z.LYZ.NS (standard z score) ([1]; primary screen, dose 0.40 uM): 0.214
Dose.FC.LYZ.NS ([1]; primary screen, dose 2.00 uM): 0.024 log2 fold change
Z.LYZ.NS (standard z score) ([1]; primary screen, dose 2.00 uM): 0.206
Dose.FC.LYZ.NS ([1]; primary screen, dose 10.00 uM): −0.031 log2 fold change
Z.LYZ.NS (standard z score) ([1]; primary screen, dose 10.00 uM): −0.268
Dose.FC.LYZ.S ([2]; dose 0.08 uM): 0.222 log2 fold change
Dose.FC.LYZ.S ([2]; dose 0.40 uM): 0.042 log2 fold change
Dose.FC.LYZ.S ([2]; dose 2.00 uM): 0.039 log2 fold change
Dose.FC.LYZ.S ([2]; dose 10.00 uM): 0.019 log2 fold change
Dose.FC.CTG (ENR+CD organoids; dose 0.08 uM): 0.275 log2 fold change
Z.CTG (standard z score) (ENR+CD organoids; dose 0.08 uM): 0.657
Dose.FC.CTG (ENR+CD organoids; dose 0.40 uM): 0.288 log2 fold change
Z.CTG (standard z score) (ENR+CD organoids; dose 0.40 uM): 0.688
Dose.FC.CTG (ENR+CD organoids; dose 2.00 uM): −0.180 log2 fold change
Z.CTG (standard z score) (ENR+CD organoids; dose 2.00 uM): −0.431
Dose.FC.CTG (ENR+CD organoids; dose 10.00 uM): 0.199 log2 fold change
Z.CTG (standard z score) (ENR+CD organoids; dose 10.00 uM): 0.475

CC(=O)O[C@]1(C(C)=O)CC[C@H]2[C@@H]3C=C(Cl)C4=CC(=O)[C@@H]5C[C@@H]5[C@]4(C)[C@H]3CC[C@@]21C [Cyproterone Acetate]
Dose.FC.LYZ.NS ([1]; primary screen, dose 0.08 uM): −0.026 log2 fold change
Dose.FC.LYZ.NS ([1]; primary screen, dose 0.40 uM): −0.074 log2 fold change
Dose.FC.LYZ.NS ([1]; primary screen, dose 2.00 uM): −0.055 log2 fold change
Dose.FC.LYZ.NS ([1]; primary screen, dose 10.00 uM): −0.081 log2 fold change
Z.LYZ.NS [1, 3]: −0.225
Z.LYZ.NS [1, 4]: −0.642
Z.LYZ.NS [1, 5]: −0.479
Z.LYZ.NS [1, 6]: −0.702
Dose.FC.LYZ.S ([2]; dose 0.08 uM): 0.040 log2 fold change
Dose.FC.LYZ.S ([2]; dose 0.40 uM): −0.019 log2 fold change
Dose.FC.LYZ.S ([2]; dose 2.00 uM): −0.093 log2 fold change
Dose.FC.LYZ.S ([2]; dose 10.00 uM): −0.134 log2 fold change
Dose.FC.CTG (ENR+CD organoids; dose 0.08 uM): −0.110 log2 fold change
Dose.FC.CTG (ENR+CD organoids; dose 0.40 uM): 0.051 log2 fold change
Dose.FC.CTG (ENR+CD organoids; dose 2.00 uM): −0.143 log2 fold change
Dose.FC.CTG (ENR+CD organoids; dose 10.00 uM): −0.173 log2 fold change

NCC(=O)Nc1ccc(-n2nc(C(F)(F)F)cc2-c2ccc3c(ccc4ccccc43)c2)cc1 [OSU-03012 (AR-12)]
Z.LYZ.NS [1, 7]: 0.755
Z.LYZ.NS [1, 8]: 0.285
Z.LYZ.NS [1, 9]: 0.460
Z.LYZ.NS [1, 10]: −0.423
Dose.FC.LYZ.NS ([1]; primary screen; dose 0.08 uM; FC vs plate median): 0.087 log2 fold change
Dose.FC.LYZ.NS ([1]; primary screen; dose 0.40 uM; FC vs plate median): 0.033 log2 fold change
Dose.FC.LYZ.NS ([1]; primary screen; dose 2.00 uM; FC vs plate median): 0.053 log2 fold change
Dose.FC.LYZ.NS ([1]; primary screen; dose 10.00 uM; FC vs plate median): −0.049 log2 fold change
Dose.FC.LYZ.S [2, 11]: 0.126 log2 fold change
Dose.FC.LYZ.S [2, 12]: 0.113 log2 fold change
Dose.FC.LYZ.S [2, 13]: 0.060 log2 fold change
Dose.FC.LYZ.S [2, 14]: −0.128 log2 fold change
Z.CTG (ENR+CD organoids; dose 0.08 uM): 0.491
Z.CTG (ENR+CD organoids; dose 0.40 uM): 0.272
Z.CTG (ENR+CD organoids; dose 2.00 uM): 0.556
Z.CTG (ENR+CD organoids; dose 10.00 uM): 0.185
Dose.FC.CTG (ENR+CD organoids; [11]): 0.205 log2 fold change
Dose.FC.CTG (ENR+CD organoids; [12]): 0.114 log2 fold change
Dose.FC.CTG (ENR+CD organoids; [13]): 0.233 log2 fold change
Dose.FC.CTG (ENR+CD organoids; [14]): 0.078 log2 fold change

COCCOc1ccc2c(c1)ncn2-c1ccc2cccc(N3CCC(N)CC3)c2n1 [CP-673451]
Dose.FC.LYZ.NS ([1]; primary screen, dose 0.08 uM): 0.031 log2 fold change
Dose.FC.LYZ.NS ([1]; primary screen, dose 0.40 uM): 0.066 log2 fold change
Dose.FC.LYZ.NS ([1]; primary screen, dose 2.00 uM): 0.102 log2 fold change
Dose.FC.LYZ.NS ([1]; primary screen, dose 10.00 uM): −0.058 log2 fold change
Z.LYZ.NS [1, 3]: 0.274
Z.LYZ.NS [1, 4]: 0.577
Z.LYZ.NS [1, 5]: 0.886
Z.LYZ.NS [1, 6]: −0.508
Dose.FC.LYZ.S ([2]; dose 0.08 uM): 0.096 log2 fold change
Dose.FC.LYZ.S ([2]; dose 0.40 uM): −0.046 log2 fold change
Dose.FC.LYZ.S ([2]; dose 2.00 uM): 0.080 log2 fold change
Dose.FC.LYZ.S ([2]; dose 10.00 uM): −0.147 log2 fold change
Dose.FC.CTG (ENR+CD organoids; dose 0.08 uM): 0.069 log2 fold change
Dose.FC.CTG (ENR+CD organoids; dose 0.40 uM): 0.186 log2 fold change
Dose.FC.CTG (ENR+CD organoids; dose 2.00 uM): 0.008 log2 fold change
Dose.FC.CTG (ENR+CD organoids; dose 10.00 uM): −0.258 log2 fold change

CCOC(=O)N1c2ccc(C(F)(F)F)cc2[C@@H](N(Cc2cc(C(F)(F)F)cc(C(F)(F)F)c2)C(=O)OC)C[C@H]1CC [Torcetrapib]
Dose.FC.LYZ.NS ([1]; primary screen, dose 0.08 uM): 0.114 log2 fold change
Z.LYZ.NS (standard z score) ([1]; primary screen, dose 0.08 uM): 0.991
Dose.FC.LYZ.NS ([1]; primary screen, dose 0.40 uM): −0.063 log2 fold change
Z.LYZ.NS (standard z score) ([1]; primary screen, dose 0.40 uM): −0.546
Dose.FC.LYZ.NS ([1]; primary screen, dose 2.00 uM): −0.136 log2 fold change
Z.LYZ.NS (standard z score) ([1]; primary screen, dose 2.00 uM): −1.185
Dose.FC.LYZ.NS ([1]; primary screen, dose 10.00 uM): −0.012 log2 fold change
Z.LYZ.NS (standard z score) ([1]; primary screen, dose 10.00 uM): −0.108
Dose.FC.LYZ.S ([2]; dose 0.08 uM): 0.320 log2 fold change
Dose.FC.LYZ.S ([2]; dose 0.40 uM): 0.045 log2 fold change
Dose.FC.LYZ.S ([2]; dose 2.00 uM): −0.098 log2 fold change
Dose.FC.LYZ.S ([2]; dose 10.00 uM): −0.056 log2 fold change
Dose.FC.CTG (ENR+CD organoids; dose 0.08 uM): 0.283 log2 fold change
Dose.FC.CTG (ENR+CD organoids; dose 0.40 uM): 0.061 log2 fold change
Dose.FC.CTG (ENR+CD organoids; dose 2.00 uM): −0.121 log2 fold change
Dose.FC.CTG (ENR+CD organoids; dose 10.00 uM): −0.151 log2 fold change

COc1cc(OC)c(/C=C/S(=O)(=O)Cc2ccc(OC)c(NCC(=O)O)c2)c(OC)c1 [Rigosertib (ON-01910)]
Dose.FC.LYZ.NS [1, 15]: −0.242 log2 fold change
Z.LYZ.NS [1, 7]: −2.105
Dose.FC.LYZ.NS [1, 16]: −0.210 log2 fold change
Z.LYZ.NS [1, 8]: −1.831
Dose.FC.LYZ.NS [1, 17]: −0.265 log2 fold change
Z.LYZ.NS [1, 9]: −2.306
Dose.FC.LYZ.NS [1, 18]: −0.242 log2 fold change
Z.LYZ.NS [1, 10]: −2.107
Dose.FC.LYZ.S [2, 19]: −0.309 log2 fold change
Dose.FC.LYZ.S [2, 20]: −0.355 log2 fold change
Dose.FC.LYZ.S [2, 21]: −0.340 log2 fold change
Dose.FC.LYZ.S [2, 22]: −0.330 log2 fold change
Dose.FC.CTG (ENR+CD organoids; [19]): −0.905 log2 fold change
Z.CTG (ENR+CD organoids; dose 0.08 uM): −2.162
Dose.FC.CTG (ENR+CD organoids; [20]): −1.285 log2 fold change
Z.CTG (ENR+CD organoids; dose 0.40 uM): −3.069
Dose.FC.CTG (ENR+CD organoids; [21]): −1.668 log2 fold change
Z.CTG (ENR+CD organoids; dose 2.00 uM): −3.984
Dose.FC.CTG (ENR+CD organoids; [22]): −0.847 log2 fold change
Z.CTG (ENR+CD organoids; dose 10.00 uM): −2.022

SNS-314 Mesylate
Dose.FC.LYZ.NS [1, 15]: −0.071 log2 fold change
Z.LYZ.NS [1, 7]: −0.620
Dose.FC.LYZ.NS [1, 16]: −0.059 log2 fold change
Z.LYZ.NS [1, 8]: −0.515
Dose.FC.LYZ.NS [1, 17]: −0.128 log2 fold change
Z.LYZ.NS [1, 9]: −1.111
Dose.FC.LYZ.NS [1, 18]: −0.127 log2 fold change
Z.LYZ.NS [1, 10]: −1.109
Dose.FC.LYZ.S [2, 19]: −0.115 log2 fold change
Dose.FC.LYZ.S [2, 20]: −0.103 log2 fold change
Dose.FC.LYZ.S [2, 21]: −0.133 log2 fold change
Dose.FC.LYZ.S [2, 22]: −0.198 log2 fold change
Dose.FC.CTG (ENR+CD organoids; [19]): −0.666 log2 fold change
Z.CTG (ENR+CD organoids; dose 0.08 uM): −1.591
Dose.FC.CTG (ENR+CD organoids; [20]): −0.777 log2 fold change
Z.CTG (ENR+CD organoids; dose 0.40 uM): −1.857
Dose.FC.CTG (ENR+CD organoids; [21]): −0.478 log2 fold change
Z.CTG (ENR+CD organoids; dose 2.00 uM): −1.142
Dose.FC.CTG (ENR+CD organoids; [22]): −0.620 log2 fold change
Z.CTG (ENR+CD organoids; dose 10.00 uM): −1.480

O=C(Nc1cc(C(F)(F)F)ccc1N1CCCCC1)c1ccncc1 [SRPIN340]
Dose.FC.LYZ.NS [1, 15]: 0.115 log2 fold change
Z.LYZ.NS [1, 7]: 1.004
Dose.FC.LYZ.NS [1, 16]: 0.040 log2 fold change
Z.LYZ.NS [1, 8]: 0.348
Dose.FC.LYZ.NS [1, 17]: 0.097 log2 fold change
Z.LYZ.NS [1, 9]: 0.846
Dose.FC.LYZ.NS [1, 18]: 0.022 log2 fold change
Z.LYZ.NS [1, 10]: 0.192
Dose.FC.LYZ.S [2, 19]: 0.112 log2 fold change
Dose.FC.LYZ.S [2, 20]: 0.098 log2 fold change
Dose.FC.LYZ.S [2, 21]: 0.100 log2 fold change
Dose.FC.LYZ.S [2, 22]: 0.078 log2 fold change
Dose.FC.CTG (ENR+CD organoids; [19]): 0.421 log2 fold change
Z.CTG (ENR+CD organoids; dose 0.08 uM): 1.005
Dose.FC.CTG (ENR+CD organoids; [20]): 0.445 log2 fold change
Z.CTG (ENR+CD organoids; dose 0.40 uM): 1.063
Dose.FC.CTG (ENR+CD organoids; [21]): 0.453 log2 fold change
Z.CTG (ENR+CD organoids; dose 2.00 uM): 1.083
Dose.FC.CTG (ENR+CD organoids; [22]): 0.467 log2 fold change
Z.CTG (ENR+CD organoids; dose 10.00 uM): 1.115
